Biological target: Multidrug resistance-associated protein 1 (Homo sapiens, UniProt P33527)
Assay: Inhibition of human MRP1 transfected in human HEK293 cells assessed as inhibition of Calcein-AM efflux measured after 30 mins by FACS Calibur cytometric analysis
Type: cell-based
Conditions: hek293, 0.5 h; call rule not given here

Sequence of Multidrug resistance-associated protein 1 (P33527 whole entry): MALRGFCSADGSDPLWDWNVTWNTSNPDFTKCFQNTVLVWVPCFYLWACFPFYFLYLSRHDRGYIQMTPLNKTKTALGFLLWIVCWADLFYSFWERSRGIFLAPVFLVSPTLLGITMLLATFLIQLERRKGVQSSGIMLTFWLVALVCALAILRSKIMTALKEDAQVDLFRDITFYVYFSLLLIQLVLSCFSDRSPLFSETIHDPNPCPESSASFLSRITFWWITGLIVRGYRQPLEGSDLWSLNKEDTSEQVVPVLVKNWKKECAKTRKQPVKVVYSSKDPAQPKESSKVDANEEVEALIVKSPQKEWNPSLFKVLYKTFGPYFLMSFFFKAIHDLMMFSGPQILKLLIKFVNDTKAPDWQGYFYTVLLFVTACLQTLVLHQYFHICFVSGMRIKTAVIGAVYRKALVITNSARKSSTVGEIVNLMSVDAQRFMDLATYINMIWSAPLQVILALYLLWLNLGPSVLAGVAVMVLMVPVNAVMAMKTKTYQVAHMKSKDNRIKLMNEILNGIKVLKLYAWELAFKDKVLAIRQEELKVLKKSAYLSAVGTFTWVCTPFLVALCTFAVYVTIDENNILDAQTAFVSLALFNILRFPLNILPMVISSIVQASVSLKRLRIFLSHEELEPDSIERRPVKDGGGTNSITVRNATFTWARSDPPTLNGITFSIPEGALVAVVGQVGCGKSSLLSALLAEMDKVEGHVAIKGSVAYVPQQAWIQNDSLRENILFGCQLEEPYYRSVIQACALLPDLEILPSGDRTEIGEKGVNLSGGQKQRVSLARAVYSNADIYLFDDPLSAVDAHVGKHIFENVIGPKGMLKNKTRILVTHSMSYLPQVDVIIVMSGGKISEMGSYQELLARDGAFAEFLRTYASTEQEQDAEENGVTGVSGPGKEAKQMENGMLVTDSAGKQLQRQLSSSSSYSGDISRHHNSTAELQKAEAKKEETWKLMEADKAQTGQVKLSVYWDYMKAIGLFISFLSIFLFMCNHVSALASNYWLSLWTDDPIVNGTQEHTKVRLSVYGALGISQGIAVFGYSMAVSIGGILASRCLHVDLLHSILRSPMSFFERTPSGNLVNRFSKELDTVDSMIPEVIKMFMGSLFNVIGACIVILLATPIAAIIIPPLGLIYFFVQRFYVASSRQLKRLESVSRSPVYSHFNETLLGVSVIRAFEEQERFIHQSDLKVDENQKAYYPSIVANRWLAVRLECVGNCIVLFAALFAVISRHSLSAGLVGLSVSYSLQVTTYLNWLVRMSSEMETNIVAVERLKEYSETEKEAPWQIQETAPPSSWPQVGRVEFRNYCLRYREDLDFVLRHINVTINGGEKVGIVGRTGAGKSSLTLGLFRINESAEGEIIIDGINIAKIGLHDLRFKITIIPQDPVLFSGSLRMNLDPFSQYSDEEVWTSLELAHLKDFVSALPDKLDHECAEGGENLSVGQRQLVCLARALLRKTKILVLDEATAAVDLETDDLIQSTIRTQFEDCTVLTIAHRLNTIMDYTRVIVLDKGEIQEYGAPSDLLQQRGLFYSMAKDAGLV

Row | SMILES | inhibition (INH)
1 | COc1cccc(CCn2c3c(c4c(OCCCCCCOc5ccc6c(c5)-c5c(c7c(n5CCc5ccccc5)CC(C)CC7=O)C6=O)cccc42)C(=O)c2ccccc2-3)c1 (stereo unspecified) | Not Active
2 | COc1cccc(CCn2c3c(c4c(OCCCCOc5ccc6c(c5)-c5c(c7c(n5CCc5ccccc5)CC(C)CC7=O)C6=O)cccc42)C(=O)c2ccccc2-3)c1 (stereo unspecified) | Not Active
3 | COc1cccc(CCn2c3c(c4c(OCCCCCCOc5cccc6c5c5c(n6CCc6cccc(OC)c6)-c6ccccc6C5=O)cccc42)C(=O)c2ccccc2-3)c1 | Not Active
4 | CC1CC(=O)c2c3c(n(CCc4ccccc4)c2C1)-c1cc(OCCCCOc2ccc4c(c2)-c2c(c5c(n2CCc2ccccc2)CC(C)CC5=O)C4=O)ccc1C3=O (stereo unspecified) | Not Active
5 | COc1cccc(CCn2c3c(c4c(OCCCCCCCCOc5ccc6c(c5)-c5c(c7c(n5CCc5ccccc5)CC(C)CC7=O)C6=O)cccc42)C(=O)c2ccccc2-3)c1 (stereo unspecified) | Not Active

Tested on: ABCG2
Assay: Therapeutic ratio of IG50 for growth inhibition of human HEK293 cells overexpressing human ABCG2 to IC50 for inhibition of human ABCG2 expressed in human HEK293 cells
Type: toxicity, cell-based
Conditions: not given

Row | SMILES | selectivity ratio
6 | COc1cccc(CCn2c3c(c4c(OCCCCCCOc5ccc6c(c5)-c5c(c7c(n5CCc5ccccc5)CC(C)CC7=O)C6=O)cccc42)C(=O)c2ccccc2-3)c1 (stereo unspecified) | > 3070
7 | COc1cccc(CCn2c3c(c4c(OCCCCOc5ccc6c(c5)-c5c(c7c(n5CCc5ccccc5)CC(C)CC7=O)C6=O)cccc42)C(=O)c2ccccc2-3)c1 (stereo unspecified) | 2230
8 | COc1cccc(CCn2c3c(c4c(OCCCCCCOc5cccc6c5c5c(n6CCc6cccc(OC)c6)-c6ccccc6C5=O)cccc42)C(=O)c2ccccc2-3)c1 | ≥ 70000
9 | CC1CC(=O)c2c3c(n(CCc4ccccc4)c2C1)-c1cc(OCCCCOc2ccc4c(c2)-c2c(c5c(n2CCc2ccccc2)CC(C)CC5=O)C4=O)ccc1C3=O (stereo unspecified) | 126
10 | COc1cccc(CCn2c3c(c4c(OCCCCCCCCOc5ccc6c(c5)-c5c(c7c(n5CCc5ccccc5)CC(C)CC7=O)C6=O)cccc42)C(=O)c2ccccc2-3)c1 (stereo unspecified) | > 52

Tested on: not listed separately
Assay: Growth inhibition of human HEK293 cells overexpressing human ABCG2 after 72 hrs by MTT assay
Type: ADME, cell-based
Conditions: read-out: IG50

Row | SMILES | GI50 at 72 h [nM]
11 | COc1cccc(CCn2c3c(c4c(OCCCCCCOc5ccc6c(c5)-c5c(c7c(n5CCc5ccccc5)CC(C)CC7=O)C6=O)cccc42)C(=O)c2ccccc2-3)c1 (stereo unspecified) | > 100000
12 | COc1cccc(CCn2c3c(c4c(OCCCCOc5ccc6c(c5)-c5c(c7c(n5CCc5ccccc5)CC(C)CC7=O)C6=O)cccc42)C(=O)c2ccccc2-3)c1 (stereo unspecified) | 295000
13 | CC1CC(=O)c2c3c(n(CCc4ccccc4)c2C1)-c1cc(OCCCCOc2ccc4c(c2)-c2c(c5c(n2CCc2ccccc2)CC(C)CC5=O)C4=O)ccc1C3=O (stereo unspecified) | 109000
14 | COc1cccc(CCn2c3c(c4c(OCCCCCCCCOc5ccc6c(c5)-c5c(c7c(n5CCc5ccccc5)CC(C)CC7=O)C6=O)cccc42)C(=O)c2ccccc2-3)c1 (stereo unspecified) | > 20000

Biological target: T1, Broad substrate specificity ATP-binding cassette transporter ABCG2 (Homo sapiens, UniProt Q9UNQ0)
T1 sequence (Q9UNQ0 whole entry): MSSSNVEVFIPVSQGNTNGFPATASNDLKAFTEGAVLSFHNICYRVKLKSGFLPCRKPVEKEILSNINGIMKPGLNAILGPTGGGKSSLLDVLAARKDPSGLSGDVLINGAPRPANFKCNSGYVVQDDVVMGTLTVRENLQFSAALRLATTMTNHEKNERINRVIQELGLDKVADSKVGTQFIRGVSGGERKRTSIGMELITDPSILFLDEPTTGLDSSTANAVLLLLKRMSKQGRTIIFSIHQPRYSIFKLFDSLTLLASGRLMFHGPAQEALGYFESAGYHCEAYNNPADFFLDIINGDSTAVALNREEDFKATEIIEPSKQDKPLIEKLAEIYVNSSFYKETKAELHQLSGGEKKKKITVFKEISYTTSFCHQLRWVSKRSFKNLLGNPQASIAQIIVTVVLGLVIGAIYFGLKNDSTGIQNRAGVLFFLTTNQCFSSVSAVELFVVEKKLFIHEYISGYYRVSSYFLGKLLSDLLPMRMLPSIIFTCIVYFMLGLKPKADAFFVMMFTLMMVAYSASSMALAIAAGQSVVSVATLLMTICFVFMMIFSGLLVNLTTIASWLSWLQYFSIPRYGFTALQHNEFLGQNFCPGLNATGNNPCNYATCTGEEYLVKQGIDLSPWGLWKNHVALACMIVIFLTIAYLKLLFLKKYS
Assay: Mixed inhibition of human ABCG2 transfected in human HEK293 cells assessed as Ki2 for inhibition of mitoxantrone efflux measured after 30 mins by FACS Calibur cytometric analysis
Type: cell-based
Conditions: not given

Row | SMILES | Ki [nM]
15 | COc1cccc(CCn2c3c(c4c(OCCCCCCOc5ccc6c(c5)-c5c(c7c(n5CCc5ccccc5)CC(C)CC7=O)C6=O)cccc42)C(=O)c2ccccc2-3)c1 (stereo unspecified) | 42

Biological target: ATP-dependent translocase ABCB1 (Homo sapiens, UniProt P08183)
Sequence (P08183 whole entry): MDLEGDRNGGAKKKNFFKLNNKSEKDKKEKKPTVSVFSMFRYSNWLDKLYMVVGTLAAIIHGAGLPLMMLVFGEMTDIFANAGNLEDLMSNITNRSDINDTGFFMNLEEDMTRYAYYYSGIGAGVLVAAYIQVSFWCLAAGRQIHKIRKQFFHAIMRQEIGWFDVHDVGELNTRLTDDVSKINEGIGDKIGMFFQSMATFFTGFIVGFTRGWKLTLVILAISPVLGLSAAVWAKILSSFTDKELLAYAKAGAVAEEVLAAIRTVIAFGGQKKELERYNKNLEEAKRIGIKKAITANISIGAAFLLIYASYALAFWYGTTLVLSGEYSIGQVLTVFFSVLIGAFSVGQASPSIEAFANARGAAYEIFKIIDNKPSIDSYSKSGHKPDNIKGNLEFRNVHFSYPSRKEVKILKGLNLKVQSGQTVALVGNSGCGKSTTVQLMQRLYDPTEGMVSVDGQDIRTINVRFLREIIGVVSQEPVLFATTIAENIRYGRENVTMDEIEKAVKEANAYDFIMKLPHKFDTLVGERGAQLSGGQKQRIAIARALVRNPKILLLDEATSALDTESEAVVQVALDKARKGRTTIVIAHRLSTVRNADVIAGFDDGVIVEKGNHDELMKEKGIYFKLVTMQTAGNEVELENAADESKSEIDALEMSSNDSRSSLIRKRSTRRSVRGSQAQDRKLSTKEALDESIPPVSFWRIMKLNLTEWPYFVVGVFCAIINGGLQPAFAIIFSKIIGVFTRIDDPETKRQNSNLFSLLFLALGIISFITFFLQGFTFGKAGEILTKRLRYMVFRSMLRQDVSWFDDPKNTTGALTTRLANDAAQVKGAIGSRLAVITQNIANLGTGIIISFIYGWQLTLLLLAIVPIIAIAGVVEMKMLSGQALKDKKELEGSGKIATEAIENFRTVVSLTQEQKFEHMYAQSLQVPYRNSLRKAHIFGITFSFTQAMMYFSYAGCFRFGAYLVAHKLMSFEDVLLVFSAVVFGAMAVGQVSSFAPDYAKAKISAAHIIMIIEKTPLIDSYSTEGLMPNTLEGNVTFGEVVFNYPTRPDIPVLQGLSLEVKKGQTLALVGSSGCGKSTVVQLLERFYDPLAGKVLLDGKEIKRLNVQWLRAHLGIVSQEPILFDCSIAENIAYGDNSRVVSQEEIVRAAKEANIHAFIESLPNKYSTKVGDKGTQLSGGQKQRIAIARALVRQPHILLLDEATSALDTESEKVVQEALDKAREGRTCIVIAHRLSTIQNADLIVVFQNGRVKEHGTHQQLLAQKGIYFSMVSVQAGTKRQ
Assay: Inhibition of human P-gp1 transfected in mouse NIH3T3 cells assessed as inhibition of Calcein-AM efflux measured after 30 mins by FACS Calibur cytometric analysis
Type: cell-based
Conditions: nih3t3, 0.5 h

Row | SMILES | inhibition (INH)
16 | COc1cccc(CCn2c3c(c4c(OCCCCCCOc5ccc6c(c5)-c5c(c7c(n5CCc5ccccc5)CC(C)CC7=O)C6=O)cccc42)C(=O)c2ccccc2-3)c1 (stereo unspecified) | Not Active
17 | COc1cccc(CCn2c3c(c4c(OCCCCOc5ccc6c(c5)-c5c(c7c(n5CCc5ccccc5)CC(C)CC7=O)C6=O)cccc42)C(=O)c2ccccc2-3)c1 (stereo unspecified) | Not Active
18 | COc1cccc(CCn2c3c(c4c(OCCCCCCOc5cccc6c5c5c(n6CCc6cccc(OC)c6)-c6ccccc6C5=O)cccc42)C(=O)c2ccccc2-3)c1 | Not Active
19 | CC1CC(=O)c2c3c(n(CCc4ccccc4)c2C1)-c1cc(OCCCCOc2ccc4c(c2)-c2c(c5c(n2CCc2ccccc2)CC(C)CC5=O)C4=O)ccc1C3=O (stereo unspecified) | Not Active
20 | COc1cccc(CCn2c3c(c4c(OCCCCCCCCOc5ccc6c(c5)-c5c(c7c(n5CCc5ccccc5)CC(C)CC7=O)C6=O)cccc42)C(=O)c2ccccc2-3)c1 (stereo unspecified) | Not Active

Biological target: T1, Broad substrate specificity ATP-binding cassette transporter ABCG2
Assay: Inhibition of human ABCG2 transfected in human HEK293 cells assessed as inhibition of mitoxantrone efflux measured after 30 mins by FACS Calibur cytometric analysis
Type: cell-based
Conditions: not given

Row | SMILES | IC50 [nM]
21 | COc1cccc(CCn2c3c(c4c(OCCCCCCOc5ccc6c(c5)-c5c(c7c(n5CCc5ccccc5)CC(C)CC7=O)C6=O)cccc42)C(=O)c2ccccc2-3)c1 (stereo unspecified) | 32.6
22 | COc1cccc(CCn2c3c(c4c(OCCCCOc5ccc6c(c5)-c5c(c7c(n5CCc5ccccc5)CC(C)CC7=O)C6=O)cccc42)C(=O)c2ccccc2-3)c1 (stereo unspecified) | 133
23 | COc1cccc(CCn2c3c(c4c(OCCCCCCOc5cccc6c5c5c(n6CCc6cccc(OC)c6)-c6ccccc6C5=O)cccc42)C(=O)c2ccccc2-3)c1 | 27.4
24 | CC1CC(=O)c2c3c(n(CCc4ccccc4)c2C1)-c1cc(OCCCCOc2ccc4c(c2)-c2c(c5c(n2CCc2ccccc2)CC(C)CC5=O)C4=O)ccc1C3=O (stereo unspecified) | 867
25 | COc1cccc(CCn2c3c(c4c(OCCCCCCCCOc5ccc6c(c5)-c5c(c7c(n5CCc5ccccc5)CC(C)CC7=O)C6=O)cccc42)C(=O)c2ccccc2-3)c1 (stereo unspecified) | 389

Biological target: T1, Broad substrate specificity ATP-binding cassette transporter ABCG2
Assay: Uncompetitive inhibition of human ABCG2 transfected in human HEK293 cells assessed as Ki2 for inhibition of mitoxantrone efflux measured after 30 mins by FACS Calibur cytometric analysis
Type: cell-based
Conditions: not given

Row | SMILES | Ki [nM]
26 | COc1cccc(CCn2c3c(c4c(OCCCCCCOc5ccc6c(c5)-c5c(c7c(n5CCc5ccccc5)CC(C)CC7=O)C6=O)cccc42)C(=O)c2ccccc2-3)c1 (stereo unspecified) | 38

Tested on: ABCG2
Assay: Therapeutic ratio of IG50 for growth inhibition of human HEK293 cells to IC50 for inhibition of human ABCG2 expressed in human HEK293 cells
Type: toxicity, cell-based
Conditions: not given

Row | SMILES | selectivity ratio
27 | COc1cccc(CCn2c3c(c4c(OCCCCCCOc5ccc6c(c5)-c5c(c7c(n5CCc5ccccc5)CC(C)CC7=O)C6=O)cccc42)C(=O)c2ccccc2-3)c1 (stereo unspecified) | > 3070
28 | COc1cccc(CCn2c3c(c4c(OCCCCOc5ccc6c(c5)-c5c(c7c(n5CCc5ccccc5)CC(C)CC7=O)C6=O)cccc42)C(=O)c2ccccc2-3)c1 (stereo unspecified) | 2230
29 | COc1cccc(CCn2c3c(c4c(OCCCCCCOc5cccc6c5c5c(n6CCc6cccc(OC)c6)-c6ccccc6C5=O)cccc42)C(=O)c2ccccc2-3)c1 | ≥ 70000
30 | CC1CC(=O)c2c3c(n(CCc4ccccc4)c2C1)-c1cc(OCCCCOc2ccc4c(c2)-c2c(c5c(n2CCc2ccccc2)CC(C)CC5=O)C4=O)ccc1C3=O (stereo unspecified) | 126
31 | COc1cccc(CCn2c3c(c4c(OCCCCCCCCOc5ccc6c(c5)-c5c(c7c(n5CCc5ccccc5)CC(C)CC7=O)C6=O)cccc42)C(=O)c2ccccc2-3)c1 (stereo unspecified) | > 52

Tested on: not listed separately
Assay: Growth inhibition of human HEK293 cells after 72 hrs by MTT assay
Type: cell-based
Conditions: read-out: IG50

Row | SMILES | GI50 at 72 h [nM]
32 | COc1cccc(CCn2c3c(c4c(OCCCCCCOc5ccc6c(c5)-c5c(c7c(n5CCc5ccccc5)CC(C)CC7=O)C6=O)cccc42)C(=O)c2ccccc2-3)c1 (stereo unspecified) | > 100000
33 | COc1cccc(CCn2c3c(c4c(OCCCCOc5ccc6c(c5)-c5c(c7c(n5CCc5ccccc5)CC(C)CC7=O)C6=O)cccc42)C(=O)c2ccccc2-3)c1 (stereo unspecified) | 295000
34 | CC1CC(=O)c2c3c(n(CCc4ccccc4)c2C1)-c1cc(OCCCCOc2ccc4c(c2)-c2c(c5c(n2CCc2ccccc2)CC(C)CC5=O)C4=O)ccc1C3=O (stereo unspecified) | 109000
35 | COc1cccc(CCn2c3c(c4c(OCCCCCCCCOc5ccc6c(c5)-c5c(c7c(n5CCc5ccccc5)CC(C)CC7=O)C6=O)cccc42)C(=O)c2ccccc2-3)c1 (stereo unspecified) | > 20000

Biological target: T1, Broad substrate specificity ATP-binding cassette transporter ABCG2
Assay: Mixed inhibition of human ABCG2 transfected in human HEK293 cells assessed as Ki1 for inhibition of mitoxantrone efflux measured after 30 mins by FACS Calibur cytometric analysis
Type: cell-based
Conditions: not given

Row | SMILES | Ki [nM]
36 | COc1cccc(CCn2c3c(c4c(OCCCCCCOc5ccc6c(c5)-c5c(c7c(n5CCc5ccccc5)CC(C)CC7=O)C6=O)cccc42)C(=O)c2ccccc2-3)c1 (stereo unspecified) | 192

From ChEMBL document CHEMBL4818994, “Uncompetitive nanomolar dimeric indenoindole inhibitors of the human breast cancer resistance pump ABCG2” (Eur J Med Chem, 2021)
